Measurements as given in patent US20090220490A1, “Compositions and Assays for Inhibiting HCV Infection” (priority 2006, published 2009).
Entries after “also recorded” stand apart in the source; their conditions may differ. Where a SMILES comes first, the peptide text is derived from it. The star is where a group is joined. FITC = O=C1OC2(c3ccc(O)cc3Oc3cc(O)ccc32)c2ccc(NC(=S)*)cc21

How the values were obtained:
Format in all cases: cell-based
[1] = system: HCV genotype 1; assay: HCV replication (HCV RNA expression) in serum-derived HCV-infected human hepatocyte cultures
Description: (§1) Sera from 25 HCV-infected patients and 3 control subjects were obtained at the VA San Diego Healthcare System Clinical Laboratory. The subject population included individuals with chronic HCV infection, viral load>200,000 IU/ml and genotypes 1 (N: 15), 2 (N: 3), 3 (N: 4), or 4 (N: 3), but negative for Hepatitis A and B, CMV and HIV. Control sera were obtained from subjects negative for Hepatitis A, B and C, CMV and HIV. In different experiments, the inoculums fluctuated between 3,728 and 68,000 HCV viral particles.
(§2) The hepatocytes were cultured for serum-derived HCV infection under the following conditions: 1) the matrix was rat-tail collagen (BD); 2) the collagen matrix was prepared within 24 hr of hepatocyte plating, at a concentration of 50 μg/ml or greater; 3) the culture plates were coated with polylysine; 4) the rinsing of the matrix was minimal; 5) the suspended hepatocytes were allowed to attach in 20% fetal calf serum for not more than 18 hr; 6) the hepatocyte-specific media was given for at least 24 hr prior to the HCV infection; 7) the hepatocytes were >85% confluent until the time of infection; 8) hepatocyte cultures with >5% apoptosis by annexin-V assays and/or increases>3-fold in ALT were discarded; and 9) hepatocyte media was added every 48 hr.
(§3) Total RNA was isolated from HCV infected primary human hepatocytes using the Ultraspec TM-II RNA kit from Biotecx Inc. (Texas) following the manufacturers protocol. The cDNA synthesis was performed using Stratascript RT MMuLV RNAse H free and Stratascript RT buffer (Stratagene), per manufacturers protocol, using:
(§4) PCR was performed on the cDNA using the cDNA reaction mixture with Qiagen's HotStar High Fidelity polymerase. Amplicons were run on 2% TBE agarose gels and imaged on a KODAK Imaging station.

[2] = system: HCV genotype 3; assay: as above; details: peptide 90 μM (text: picomolar), treated 4 hr after the HCV infection (FIG. 13F)
Description: as §1, §2, §3, §4

[3] = system: HCV genotype 4; assay: as above; details: peptide 90 μM (text: picomolar), treated 4 hr after the HCV infection (FIG. 13F)
Description: as §1, §2, §3, §4

[4] = system: endogenous AP-50 phosphorylation on Thr156; assay: confocal microscopy of AP-50 phosphoT156 in HCV-infected human hepatocyte cultures; details: HCV genotype 1-infected human hepatocyte cultures, 72 hr, epitope specific antibodies (FIG. 13D)
Protocol: (§5) Fluorescent labels were observed using a triple-channel fluorescence microscope or a confocal microscope. Fluorochromes utilized included TOPRO-3 (blue), Alexa 488 (green) and Alexa 594 (red) (Molecular Probes). The percentage of HCV infected hepatocytes was determined by confocal microscopy using HCV E2 and core specific antibodies (Buck, et al., Mol. Cell. 8, 807 (2001); Rudel et al., Science 276, 1571 (1997). AP-50 and AP-50-phosphoT^157 were detected with specific antibodies (Zhang et al., Traffic 6, 1103 (2005); Smythe, Nature 431, 641 (2004)). At least 100 cells were analyzed per experimental point (Buck et al. EMBO J 20, 6712 (2001)). The nuclear morphology were analyzed by staining cells with TOPRO-3 ([…]). Two observers analyzed each immunofluorescent study.
(§6) Primary hepatocytes were fixed with 50/50 acetone/methanol at −20° C. for 20 minutes and allowed to air dry at room temperature. Blocking of non-specific epitopes was done with PBS+3% BSA for 30 minutes at room temperature. Primary antibodies were used at 1:100 dilutions in PBS+3% BSA, for 1 hour at room temperature washes were done with PBS. […] At least 100 cells were analyzed per experimental point. We analyzed the nuclear morphology by staining cells with TO-PRO-3 (Molecular Probes). […]

[5] = system: human hepatocytes; assay: cell toxicity by release of lactic dehydrogenase (LDH) into the medium
Protocol: Toxicity of AP-50 peptides to human hepatocyte cultures was determined by measuring lactic dehydrogenase (Sigma) in the medium.

[6] = system: HCV-infected human hepatocytes; assay: confocal microscopy of FITC-labelled peptide: cell entry and association with HCV E2
Protocol: as §5, §6

CC(C)[C@H](NC(=O)[C@H](CCC(N)=O)NC(=O)[C@H](CCCNC(=N)N)NC(=O)[C@H](CCCNC(=N)N)NC(=O)[C@H](CCCNC(=N)N)NC(=O)[C@H](CCC(N)=O)NC(=O)[C@H](CCCNC(=N)N)NC(=O)[C@H](CCCNC(=N)N)NC(=O)[C@H](CCCCN)NC(=O)[C@H](CCCCN)NC(=O)[C@H](CCCNC(=N)N)NC(=O)CNC(=O)[C@H](Cc1ccc(O)cc1)NC(=O)CNC(=O)CNC(=O)CNC(=O)CNC(=S)Nc1ccc2c(c1)C(=O)OC21c2ccc(O)cc2Oc2cc(O)ccc21)C(=O)N[C@@H](C)C(=O)NCC(=O)N[C@@H](CCC(N)=O)C(=O)O [AP-50 peptide] ({FITC}-GGGGYGRKKRRQRRRQVAGQ-OH; N-terminus and C-terminus assumed)
HCV replication, detected by expression of HCV RNA ([1]; peptide 90 pM, 72 hr, given at time zero of the infection (FIG. 13E)): blocked HCV replication; also recorded: inhibited HCV replication
HCV replication, detected by expression of HCV RNA at 72 hr ([1]; peptide 90 μM (text: picomolar), treated 4 hr after the HCV infection (FIG. 13F)): inhibited HCV replication
HCV replication, detected by expression of HCV RNA at 72 hr [2]: inhibited HCV replication
HCV replication, detected by expression of HCV RNA at 72 hr [3]: inhibited HCV replication
phosphorylation of endogenous AP-50 on Thr156 [4]: inhibited the phosphorylation; also recorded: blocked phosphorylation
LDH values / viability of HCV-infected hepatocytes treated with peptide ([5]; human hepatocytes infected with HCV genotypes 1, 3 or 4, 72 hr, relative to control (FIG. 14)): improving the viability; also recorded: normalized
cellular toxicity (LDH release into the medium) ([5]; human hepatocytes treated with peptide for 72 hr (FIG. 14)): not toxic
association with HCV E2 in cells (confocal microscopy, merge) ([6]; HCV-infected human hepatocytes, 72 hr (FIG. 13B)): associated with HCV E2
cell permeability (intracellular FITC fluorescence) ([6]; human hepatocytes, 72 hr, HCV genotype 1 (FIG. 13B)): cell permeable; also recorded: intracellular
